From ChEMBL document CHEMBL4814070 (Eur J Med Chem, 2021)
Active and inactive are the calls of the source. The rule behind the calls is not given here.

Columns and labels:
[1] = target: T1, Glutamate NMDA receptor; GRIN1/GRIN2A (Homo sapiens, UniProt Q05586+Q12879); assay: Inhibition of human GluN1a/GluN2A receptor expressed in HEK293 cells assessed as relative inhibition of glycine/glutamate-induced current at 100 uM measured at +40 mV holding potential by whole-cell patch clamp method; assay type: cell-based
Acetylcholinesterase = Acetylcholinesterase (Homo sapiens, UniProt P22303)
Description: Inhibition of human recombinant AChE assessed as reduction in cholinesterase activity using acetylthiocholine iodide as substrate by Ellman's method

[2] = target: T1, Glutamate NMDA receptor; GRIN1/GRIN2A
Description: Inhibition of human GluN1a/GluN2A receptor expressed in HEK293 cells assessed as inhibition of glycine/glutamate-induced current measured at -60 mV holding potential by whole-cell patch clamp method

[3] = target: T2, Glutamate NMDA receptor; GRIN1/GRIN2B (Homo sapiens, UniProt Q05586+Q13224)
Description: Inhibition of human GluN1a/GluN2B receptor expressed in HEK293 cells assessed as inhibition of glycine/glutamate-induced current measured at -60 mV holding potential by whole-cell patch clamp method

Cholinesterase [4] = target: T3, Cholinesterase (Homo sapiens, UniProt P06276)
Description: Inhibition of human plasmatic BuChE assessed as reduction in cholinesterase activity by Ellman's method

Cholinesterase [5] = target: T3, Cholinesterase; assay: Inhibition of human plasmatic BuChE assessed as reduction in cholinesterase activity at 100 uM by Ellman's method
[6] = target: T2, Glutamate NMDA receptor; GRIN1/GRIN2B; remark: listed apart in the source
Description: Inhibition of human GluN1a/GluN2B receptor expressed in HEK293 cells assessed as relative inhibition of glycine/glutamate-induced current measured at +40 mV holding potential by whole-cell patch clamp method

[7] = Drug uptake in ICR mouse brain at 5 mg/kg, ip measured after 60 mins by HPLC-MS analysis; assay type: ADME, organism-based; conditions: read-out: Drug uptake
[8] = Toxicity in Wistar rat assessed as prepulse inhibition of acoustic startle response at 1 to 5 mg/kg, ip measured for 10 mins by open field test relative to control; assay type: organism-based; conditions: in vivo, dose 1-5 mg/kg
Rattus norvegicus [9] = assay: Effect on spontaneous locomotory activity in Wistar rat at 5 mg/kg, ip measured for 10 mins by open field test; assay type: functional, organism-based
[10] = target: T1, Glutamate NMDA receptor; GRIN1/GRIN2A; remark: listed apart in the source
Description: Inhibition of human GluN1a/GluN2A receptor expressed in HEK293 cells assessed as relative inhibition of glycine/glutamate-induced current measured at +40 mV holding potential by whole-cell patch clamp method

Rattus norvegicus [11] = assay: Reduction in total distance travelled in Wistar rat at 5 mg/kg, ip measured for 10 mins by open field test relative to control; assay type: functional, organism-based
[12] = Drug uptake in ICR mouse plasma at 5 mg/kg, ip measured after 15 mins by HPLC-MS analysis; assay type: ADME, organism-based
Rattus norvegicus [13] = assay: Effect on spontaneous locomotory activity in Wistar rat at 1 mg/kg, ip measured for 10 mins by open field test; assay type: functional, organism-based
[14] = Drug uptake in ICR mouse plasma at 5 mg/kg, ip measured after 60 mins by HPLC-MS analysis; assay type: ADME, organism-based
[15] = Toxicity in Wistar rat assessed as hyperlocomotion at 5 mg/kg, ip measured for 10 mins by open field test relative to control; assay type: organism-based; conditions: in vivo
[16] = Drug uptake in ICR mouse brain at 5 mg/kg, ip measured after 15 mins by HPLC-MS analysis; assay type: ADME, organism-based; conditions: read-out: Drug uptake
[17] = Ratio of drug level in brain to plasma in ICR mouse at 5 mg/kg, ip measured after 15 mins by HPLC-MS analysis; assay type: ADME, organism-based; conditions: brain and plasma, read-out: BBR
[18] = Toxicity in Wistar rat assessed as prepulse inhibition of acoustic startle response at 0.3 mg/kg, ip measured for 10 mins by open field test relative to control; assay type: organism-based; conditions: in vivo

T2 sequence (Q13224 whole entry, looked up, other chains not shown): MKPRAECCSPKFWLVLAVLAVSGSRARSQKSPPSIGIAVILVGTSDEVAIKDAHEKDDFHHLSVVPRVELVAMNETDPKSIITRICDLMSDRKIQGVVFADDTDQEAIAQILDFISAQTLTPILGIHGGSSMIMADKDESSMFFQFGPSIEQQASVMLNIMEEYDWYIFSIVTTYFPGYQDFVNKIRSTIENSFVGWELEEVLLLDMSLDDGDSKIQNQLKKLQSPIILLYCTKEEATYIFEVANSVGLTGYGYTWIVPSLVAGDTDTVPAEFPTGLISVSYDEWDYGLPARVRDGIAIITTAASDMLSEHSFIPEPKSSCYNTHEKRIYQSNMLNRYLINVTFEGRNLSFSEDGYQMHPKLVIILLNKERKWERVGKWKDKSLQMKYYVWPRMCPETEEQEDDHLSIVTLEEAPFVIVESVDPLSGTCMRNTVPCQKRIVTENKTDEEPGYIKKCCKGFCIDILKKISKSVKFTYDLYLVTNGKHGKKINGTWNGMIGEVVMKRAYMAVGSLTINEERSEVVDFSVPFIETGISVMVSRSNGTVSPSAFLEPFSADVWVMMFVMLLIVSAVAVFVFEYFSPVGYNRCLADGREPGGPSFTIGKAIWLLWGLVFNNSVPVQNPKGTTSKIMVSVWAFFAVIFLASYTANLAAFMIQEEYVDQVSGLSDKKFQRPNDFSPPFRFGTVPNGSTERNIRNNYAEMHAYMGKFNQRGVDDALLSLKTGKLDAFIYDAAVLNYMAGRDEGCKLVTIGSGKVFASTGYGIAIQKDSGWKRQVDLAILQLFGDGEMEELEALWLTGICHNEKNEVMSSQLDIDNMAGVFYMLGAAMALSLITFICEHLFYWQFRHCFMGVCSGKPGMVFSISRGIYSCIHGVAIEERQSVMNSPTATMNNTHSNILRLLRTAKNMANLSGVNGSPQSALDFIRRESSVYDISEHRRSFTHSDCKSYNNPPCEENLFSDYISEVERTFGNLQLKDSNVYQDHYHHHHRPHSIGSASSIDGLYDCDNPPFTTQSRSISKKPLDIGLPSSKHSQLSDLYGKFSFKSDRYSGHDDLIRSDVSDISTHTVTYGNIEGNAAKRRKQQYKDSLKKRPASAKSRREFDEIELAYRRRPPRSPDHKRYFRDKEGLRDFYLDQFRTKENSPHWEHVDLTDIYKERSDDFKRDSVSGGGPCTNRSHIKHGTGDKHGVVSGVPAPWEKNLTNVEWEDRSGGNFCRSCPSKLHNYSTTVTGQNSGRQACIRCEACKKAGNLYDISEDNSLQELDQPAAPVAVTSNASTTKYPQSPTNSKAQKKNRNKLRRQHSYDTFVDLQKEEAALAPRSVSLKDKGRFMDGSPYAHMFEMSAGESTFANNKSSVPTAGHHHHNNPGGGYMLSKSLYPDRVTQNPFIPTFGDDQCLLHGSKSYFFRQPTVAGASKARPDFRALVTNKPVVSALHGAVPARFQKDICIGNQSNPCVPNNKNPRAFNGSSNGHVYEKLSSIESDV
Chain of Acetylcholinesterase (P22303 whole entry): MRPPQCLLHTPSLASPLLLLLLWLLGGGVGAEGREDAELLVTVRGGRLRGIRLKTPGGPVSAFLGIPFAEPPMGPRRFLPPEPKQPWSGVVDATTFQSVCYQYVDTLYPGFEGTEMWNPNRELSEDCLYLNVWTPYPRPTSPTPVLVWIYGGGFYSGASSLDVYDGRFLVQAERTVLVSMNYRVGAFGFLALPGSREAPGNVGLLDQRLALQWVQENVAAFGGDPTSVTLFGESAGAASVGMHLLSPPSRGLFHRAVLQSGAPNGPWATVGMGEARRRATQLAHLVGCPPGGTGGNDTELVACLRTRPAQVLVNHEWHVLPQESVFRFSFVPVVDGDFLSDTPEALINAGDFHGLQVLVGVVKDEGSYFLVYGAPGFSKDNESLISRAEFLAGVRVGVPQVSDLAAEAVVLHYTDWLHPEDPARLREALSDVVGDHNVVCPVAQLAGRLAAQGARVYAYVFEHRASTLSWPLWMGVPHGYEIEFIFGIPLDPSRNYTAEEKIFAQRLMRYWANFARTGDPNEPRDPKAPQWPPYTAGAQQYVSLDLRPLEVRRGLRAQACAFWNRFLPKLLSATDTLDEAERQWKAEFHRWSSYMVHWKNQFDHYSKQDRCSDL
T3 sequence (P06276 whole entry): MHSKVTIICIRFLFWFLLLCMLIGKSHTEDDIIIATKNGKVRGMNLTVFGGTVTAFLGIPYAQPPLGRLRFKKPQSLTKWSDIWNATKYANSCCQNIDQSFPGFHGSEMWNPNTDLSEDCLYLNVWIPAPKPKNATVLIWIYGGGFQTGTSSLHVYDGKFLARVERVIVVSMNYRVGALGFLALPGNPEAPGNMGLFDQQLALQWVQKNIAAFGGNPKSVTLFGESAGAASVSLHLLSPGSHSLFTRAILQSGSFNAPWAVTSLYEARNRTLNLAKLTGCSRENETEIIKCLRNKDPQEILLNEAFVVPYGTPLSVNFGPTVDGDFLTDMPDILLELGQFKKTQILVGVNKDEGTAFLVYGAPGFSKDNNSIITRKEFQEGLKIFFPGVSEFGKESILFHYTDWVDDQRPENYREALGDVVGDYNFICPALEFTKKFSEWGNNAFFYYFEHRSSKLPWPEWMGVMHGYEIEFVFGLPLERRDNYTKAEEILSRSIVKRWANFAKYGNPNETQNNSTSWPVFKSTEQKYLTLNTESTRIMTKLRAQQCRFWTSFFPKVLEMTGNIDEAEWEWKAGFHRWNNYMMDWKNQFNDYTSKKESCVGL

Row | Structure (SMILES) | inhibition [1] [%] | IC50 (Acetylcholinesterase) [µM] | IC50 [2] [µM] | IC50 [3] [µM] | IC50 (Cholinesterase [4]) [µM] | inhibition (Cholinesterase [5]) [%] | IC50 [6] [µM] | concentration at 1 h [7] [nM] | Activity [8] | Activity (Rattus norvegicus [9]) | IC50 [10] [µM] | Activity (Rattus norvegicus [11]) | concentration at 0.25 h [12] [nM] | Activity (Rattus norvegicus [13]) | concentration at 1 h [14] [nM] | Activity [15] | concentration at 0.25 h [16] [nM] | Kp at 0.25 h [17] | Activity [18]
1 | Cc1ccc2c(N)c3c(nc2c1)CCC3 | 53.6 | 0.347 | 7.68 | 15.6 | 8.44 | – | – | – | – | – | – | – | – | – | – | – | – | – | –
2 | Nc1c2c(nc3cccc(Cl)c13)CCC2 | 24.5 | – | 27 | 44.9 | – | 6 | – | – | – | – | – | – | – | – | – | – | – | – | –
3 | Cl.Nc1c2c(nc3cccc(Cl)c13)CCCCC2 | 46.7 | 223 | 7.29 | 22.1 | 0.311 | – | 146 | 32 | Non-Toxic | inactive | 112 | Active | 2290 | inactive | 185 | Toxic | 762 | 33 | –
4 | C[C@]12N[C@H](Cc3ccccc31)c1ccccc12 [DIZOCILPINE] | – | – | – | – | – | – | – | – | – | – | – | – | – | – | – | – | – | – | Toxic
5 | Nc1c2c(nc3c(Br)cc(Br)cc13)CCCC2 | 67.7 | 5.18 | 15.6 | 18.7 | 32 | – | – | – | – | – | – | – | – | – | – | – | – | – | –
6 | Cl.Nc1c2c(nc3ccc(Br)cc13)CCCC2 | 79.3 | 4.79 | 6.58 | 7.8 | 20.8 | – | 12.8 | 218 | Non-Toxic | – | 45.9 | Active | 1330 | inactive | 170 | – | 1380 | 103 | –
7 | Nc1c2c(nc3ccc(Cl)cc13)CCCC2 | 47.5 | 1.94 | 14.8 | 9.82 | 6.72 | – | – | – | – | – | – | – | – | – | – | – | – | – | –
8 | COc1ccc2nc3c(c(N)c2c1)CCCC3.Cl | 77.6 | – | 4.7 | 7.24 | – | – | 51 | 326 | – | – | 49.3 | – | 1670 | – | 207 | – | 2320 | – | –
9 | Nc1c2c(nc3cccc(Cl)c13)CCCC2 | 35 | 0.0334 | 19.6 | 23.7 | 0.062 | – | – | – | – | – | – | – | – | – | – | – | – | – | –
10 | Cc1ccc2nc3c(c(N)c2c1)CCCC3 | 18.5 | 15.5 | 12.3 | 13.2 | 13.7 | – | – | – | – | – | – | – | – | – | – | – | – | – | –
11 | Cl.Nc1c2c(nc3ccc(Cl)cc13)CCC2 | 56.5 | 1.58 | 21 | 8.69 | 6.88 | – | 27.7 | 173 | Non-Toxic | – | 84.2 | Active | 1660 | inactive | 389 | – | 1000 | 61 | –
12 | Nc1c2c(nc3c(Cl)cc(Cl)cc13)CCC2 | 33.5 | 13.1 | 14.6 | 21.4 | 17.9 | – | – | – | – | – | – | – | – | – | – | – | – | – | –
13 | Cc1ccc2c(N)c3c(nc2c1)CCCCC3 | 50 | 0.104 | 15.2 | 9.29 | 1 | – | – | – | – | – | – | – | – | – | – | – | – | – | –
14 | Cc1ccc2nc3c(c(N)c2c1)CCC3 | 30.8 | 10 | 20.5 | 19.8 | 23.7 | – | – | – | – | – | – | – | – | – | – | – | – | – | –
15 | Nc1c2c(nc3ccc(Cl)cc13)CCCCC2 | 43 | 8.6 | 20.2 | 12 | 10.3 | – | – | – | – | – | – | – | – | – | – | – | – | – | –
16 | Nc1c2c(nc3c(Br)cc(Br)cc13)CCC2 | 55.7 | 15.1 | 10.2 | 17.1 | – | 34 | – | – | – | – | – | – | – | – | – | – | – | – | –

Row | Structure (SMILES) | inhibition [1] [%] | IC50 (Acetylcholinesterase) [µM] | IC50 [2] [µM] | IC50 [3] [µM] | IC50 (Cholinesterase [4]) [µM] | inhibition (Cholinesterase [5]) [%] | IC50 [6] [µM] | concentration at 1 h [7] [nM] | Activity [8] | Activity (Rattus norvegicus [9]) | IC50 [10] [µM] | Activity (Rattus norvegicus [11]) | concentration at 0.25 h [12] [nM] | Activity (Rattus norvegicus [13]) | concentration at 1 h [14] [nM] | Activity [15] | concentration at 0.25 h [16] [nM] | Kp at 0.25 h [17] | Activity [18]
17 | Nc1c2c(nc3ccc(Br)cc13)CCCCC2 | 57.7 | 13.8 | 13.8 | 11.8 | 15.1 | – | – | – | – | – | – | – | – | – | – | – | – | – | –
18 | Nc1c2c(nc3c(Cl)cc(Cl)cc13)CCCCC2 | 38.5 | 9.04 | 20 | 37.9 | 23.8 | – | – | – | – | – | – | – | – | – | – | – | – | – | –
19 | COc1ccc2nc3c(c(N)c2c1)CCC3 | 66.1 | 8.22 | 4.16 | 14.6 | 10.6 | – | 88.9 | – | – | – | 66.8 | – | – | – | – | – | – | – | –
20 | Cc1cccc2nc3c(c(N)c12)CCCCC3 | 54.3 | 0.255 | 12.6 | 17.4 | 0.107 | – | – | – | – | – | – | – | – | – | – | – | – | – | –
21 | Cc1ccc2nc3c(c(N)c2c1)CCCCC3 | 40.1 | 22.5 | 27.1 | 16.6 | 10.6 | – | – | – | – | – | – | – | – | – | – | – | – | – | –
22 | Cc1cccc2nc3c(c(N)c12)CCC3 | 22 | 0.415 | 21.3 | 16.6 | 0.471 | – | – | – | – | – | – | – | – | – | – | – | – | – | –
23 | COc1ccc2nc3c(c(N)c2c1)CCCCC3 | 53.6 | 17.6 | 20 | 7.67 | 4.41 | – | – | – | – | – | – | – | – | – | – | – | – | – | –
24 | Nc1c2c(nc3c(Cl)cc(Cl)cc13)CCCC2 | 38.2 | 4.34 | 24 | 37.1 | 14.8 | – | – | – | – | – | – | – | – | – | – | – | – | – | –
25 | Cl.Nc1c2c(nc3ccc(Br)cc13)CCC2 | 75.3 | 5.69 | 6.12 | 6.9 | 16.9 | – | 23 | 116 | Non-Toxic | – | 51.3 | Active | 2520 | inactive | 154 | – | 1180 | 47 | –
26 | Cc1cccc2nc3c(c(N)c12)CCCC3 | 40.5 | 0.125 | 18.5 | 14.2 | 0.495 | – | – | – | – | – | – | – | – | – | – | – | – | – | –
27 | Nc1c2c(nc3ccc(F)cc13)CCCCC2 | 38.5 | 0.624 | 14.5 | 19.8 | 0.569 | – | – | – | – | – | – | – | – | – | – | – | – | – | –
28 | Nc1c2c(nc3ccc(F)cc13)CCCC2 | 41.9 | 0.978 | 15.4 | 21.3 | 0.751 | – | – | – | – | – | – | – | – | – | – | – | – | – | –
29 | Cc1ccc2c(N)c3c(nc2c1)CCCC3.Cl | 51.3 | 0.072 | 17 | 7.83 | 2.9 | – | 41.8 | 251 | Non-Toxic | – | 98.6 | Active | 1300 | inactive | 87 | – | 731 | 56 | –
30 | Nc1c2c(nc3c(Br)cc(Br)cc13)CCCCC2 | 80.7 | 15.1 | 21.5 | 26.9 | 89.9 | – | – | – | – | – | – | – | – | – | – | – | – | – | –
31 | Nc1c2c(nc3ccc(F)cc13)CCC2 | 28.7 | 0.662 | 28 | 30.3 | 1.91 | – | – | – | – | – | – | – | – | – | – | – | – | – | –
